Measurements taken from the supplement of paper PMC10627819.

Tests used:
[1] = test system: S. aureus DSM 20231; test: fitness (endpoint OD595 vs no drug) (fraction); higher = more growth
How it was run: (§1)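 Each well of a 384-well plate received 30 µl of culture at OD595 0.01, or 55 µl for S. pneumoniae. TSB, LB Lennox or CY served as media at 37 °C. OD595 was taken every 30 min for 14 h and corrected by subtracting the first reading. Fitness is the optical density at stationary-phase entry divided by the robust mean of no-drug controls, capped at 1.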

[2] = test system: S. pneumoniae D39V; test: as above
How it was run: as §1

[3] = test system: S. aureus Newman; test: as above
How it was run: as §1

[4] = test system: B. subtilis 168; test: as above
How it was run: as §1

[5] = test system: S. aureus DSM 20231; test: Bliss interaction score (quartile over a dose matrix) (fitness difference); higher = more antagonism (negative = synergy)
How it was run: (§2)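 At entry into stationary phase, OD595 was recorded and divided by the robust mean of the no-drug wells on that plate, with any value above 1 set to 1. This gives the fitness measure used throughout. Single-drug fitness was inferred from combination data, and the Bliss score, observed minus product-expected fitness, is shown as quartiles across technical, biological and donor/recipient replicates.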

[6] = test system: S. pneumoniae D39V; test: as above
How it was run: as §2

[7] = test system: S. aureus Newman; test: as above
How it was run: as §2

[8] = test system: B. subtilis 168; test: as above
How it was run: as §2
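Wherever Bliss interaction score (quartile over a dose matrix) is given: first quartile when negative (synergy) and third quartile when positive (antagonism).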

COc1c(N2C[C@@H]3CCCN[C@@H]3C2)c(F)cc2c(=O)c(C(=O)O)cn(C3CC3)c12 [Moxifloxacin] + CCN(CC)CCOC(=O)c1ccc(N)cc1 [Procaine]
fitness
Details	partner 85.5 µg/mL	partner 171 µg/mL	partner 342 µg/mL
[1], first compound 0.0075 µg/mL	0.781	0.876	0.898
[1], first compound 0.015 µg/mL	0.712	0.744	0.773
[1], first compound 0.03 µg/mL	0.619	0.677	0.669
[2], first compound 0.005 µg/mL	≥ 1	0.996	≥ 1
[2], first compound 0.01 µg/mL	≥ 1	0.986	0.974
[2], first compound 0.02 µg/mL	0.966	0.929	0.874
[3], first compound 0.0075 µg/mL	0.771	0.757	0.763
[4], first compound 0.0312 µg/mL	0.0464	0.0462	0.0422
[4], first compound 0.0625 µg/mL	0.051	0.0447	0.0546
[4], first compound 0.125 µg/mL	0.0477	0.041	0.0508
[4], first compound 2 µg/mL	0.0328	0.02	0.021
[4], first compound 4 µg/mL	0.0283	0.0228	0.0275
[4], first compound 8 µg/mL	0.017	0.0132	0.0182

fitness, one replicate
Details	partner 85.5 µg/mL	partner 171 µg/mL	partner 342 µg/mL
[1], first compound 0.06 µg/mL	0.684	0.666	0.688
[1], first compound 0.12 µg/mL	0.481	0.468	0.492
[2], first compound 0.0037 µg/mL	0.927	0.926	0.826
[2], first compound 0.0075 µg/mL	≥ 1	0.93	0.845
[2], first compound 0.015 µg/mL	0.881	0.923	0.849

Details	Bliss interaction score
[5]	-0.0665
[6]	0.0674
[7]	0.0617
[8]	-0.015

COc1c(N2C[C@@H]3CCCN[C@@H]3C2)c(F)cc2c(=O)c(C(=O)O)cn(C3CC3)c12 [Moxifloxacin] + CN1C2=CC=CC=C2N=C3C1=CC=CC3=O [Pyocyanin]
fitness
Details	partner 0.325 µg/mL	partner 0.65 µg/mL	partner 1.25 µg/mL	partner 1.3 µg/mL	partner 2.5 µg/mL	partner 5 µg/mL
[1], first compound 0.0075 µg/mL	–	–	0.836	–	0.755	0.665
[1], first compound 0.015 µg/mL	–	–	0.743	–	0.711	0.569
[1], first compound 0.03 µg/mL	–	–	0.678	–	0.706	0.567
[2], first compound 0.005 µg/mL	≥ 1	0.988	–	0.797	–	–
[2], first compound 0.01 µg/mL	≥ 1	0.98	–	0.828	–	–
[2], first compound 0.02 µg/mL	≥ 1	0.959	–	0.788	–	–
[3], first compound 0.0075 µg/mL	–	–	0.679	–	0.605	0.372
[3], first compound 0.015 µg/mL	–	–	0.51	–	0.434	0.221
[3], first compound 0.03 µg/mL	–	–	0.157	–	0.138	0.0727
[4], first compound 0.0312 µg/mL	–	–	0.0609	–	0.0599	0.0529
[4], first compound 0.0625 µg/mL	–	–	0.0538	–	0.0598	0.057
[4], first compound 0.125 µg/mL	–	–	0.0466	–	0.047	0.0468
[4], first compound 2 µg/mL	–	–	0.0183	–	0.0257	0.0378
[4], first compound 4 µg/mL	–	–	0.0241	–	0.0221	0.0304
[4], first compound 8 µg/mL	–	–	0.012	–	0.0127	0.0179

one replicate
Details	fitness
[1], first compound 0.06 µg/mL, partner 1.25 µg/mL	0.671
[1], first compound 0.06 µg/mL, partner 2.5 µg/mL	0.658
[1], first compound 0.06 µg/mL, partner 5 µg/mL	0.651
[1], first compound 0.12 µg/mL, partner 1.25 µg/mL	0.493
[1], first compound 0.12 µg/mL, partner 2.5 µg/mL	0.514
[1], first compound 0.12 µg/mL, partner 5 µg/mL	0.47
[2], first compound 0.0037 µg/mL, partner 0.325 µg/mL	0.925
[2], first compound 0.0037 µg/mL, partner 0.65 µg/mL	0.871
[2], first compound 0.0075 µg/mL, partner 0.325 µg/mL	0.948
[2], first compound 0.0075 µg/mL, partner 0.65 µg/mL	0.883
[2], first compound 0.015 µg/mL, partner 0.325 µg/mL	0.911
[2], first compound 0.015 µg/mL, partner 0.65 µg/mL	0.91

Details	Bliss interaction score
[5]	0.0656
[6]	0.0702
[7]	-0.0614
[8]	-0.0123
